Experimental data taken from a melting point compilation (Tetko et al.; mined from patent text by program, amines drawn as free bases though some values may be those of a salt).

Row | Compound | melting point [°C]
1 | CC1(C)N=C(n2nc(O)ccc2=O)c2cc(Br)ccc2O1 | 196 to 198
2 | COc1ccc(C(=O)NCCc2ccc(-c3ccc(OC(C)(C)C(=O)O)cc3)cc2)cc1 | 180 to 183
3 | O=C1NC(C(=O)NCCO[N+](=O)[O-])C(c2ccc(Cl)cc2)S1 (configuration not stated) | 125 to 127
4 | CS(=O)(=O)N1CCN([C@@H](CNS(=O)(=O)c2ccc(OCc3ccnc4ccccc34)cc2)C(=O)NO)CC1 | 180
5 | CC(=O)OCC1=C(C(=O)OCOC(=O)C(C)(C)C)N2C(=O)C(NC(=O)Cc3csc(=O)s3)C2SC1 (configuration not stated) | 135
6 | CC(C)(C)c1cc(Cn2cncn2)cc(C(C)(C)C)c1O | < 30
7 | Cc1cc(-c2ccc(F)cc2)n(-c2ccc(S(N)(=O)=O)cc2)c1 | 168 to 170
8 | N#Cc1cccc2nc(N[C@@H]3CCc4ccccc43)ccc12 | 150
9 | COc1ccc(COc2cc(NC(C)=O)c(Cl)cc2C(=O)CCCCCl)cc1 | 147 to 149
10 | CC(C)(C)c1ccc(-c2ccc(N3CCCN(c4ccc(-c5ccc(C(C)(C)C)cc5)cn4)CC3)nc2)cc1 | 268 to 270
11 | COc1ccc(-c2cc3ncccc3c(O)n2)cc1 | 295 to 298
12 | O=c1[nH]c2ccc(I)cc2c(=O)n1-c1ccc(Cl)cc1 | 324 to 326
13 | COc1cc(C(=O)O)cc(OC)c1Cc1cnc(N)nc1N | 264 to 267
14 | Cc1noc(C)c1COc1ccc(C(=O)O)c(O)c1 | 201 to 203
15 | CN(C)C=Nc1ccc(-c2ncnn2-c2ccc(F)cc2)cc1 | 159 to 161
16 | FC(F)Oc1ccc2nc(NC3=NCC4(CN5CCC4CC5)O3)sc2c1 (configuration not stated) | 223 to 225
17 | O=[N+]([O-])C1=C2N(CC3CCOC3)CCN2C2CCCC1O2 (configuration not stated) | 115 to 117
18 | COc1cc(CCc2ccc(C)cc2)cc(OC)c1OC | 51 to 52
19 | COc1ccc(C(=O)Nc2ccc(N3CCC(NC[C@H](O)COc4ccc(O)cc4)CC3)cc2)cc1OC | 77 to 84
20 | O=C(CO[C@H]1CC[C@@H](CCNS(=O)(=O)c2ccc(Cl)cc2)CC1)Nc1nnn[nH]1 | 191 to 192
21 | COC(=O)c1c(Cl)nc(N2CCC(O)CC2)nc1NCc1ccc(OC)c(Cl)c1 | 138 to 139
22 | COc1ccc(-c2c(Cl)c(CN3C(=O)CCC3=O)nc3sc4c(c23)CCN(Cc2ccccc2)C4)cc1 | 241 to 243
23 | COCCn1cc(C(=O)C(F)(F)F)c2c(Cl)cccc21 | 57 to 59
24 | CC(=O)c1cccc(Oc2ncc(C(F)(F)F)cc2F)c1 | 65 to 67
25 | CCC1CCCCN1C(=O)c1cc2ccccc2c(-c2ccccc2)n1 (configuration not stated) | 86
26 | CCCCCCCCNC(=O)Nc1sc(C(=O)OC(C)CCCCCC)c(C)c1C(=O)OC(C)(C)C (configuration not stated) | 92 to 94

Row | Compound | melting point [°C]
27 | Cc1nnc(COc2cccc3c2CN(C2CCC(=O)NC2=O)C3=O)o1 (configuration not stated) | 206 to 208
28 | CCc1cncc(-c2[nH]nc(C(=O)Cc3ccc4ccccc4c3)c2N)c1 | 222 to 224
29 | CCOc1cc(C(CS(C)(=O)=O)N2C(=O)c3cccc(NC(=O)COCc4ccccc4)c3C2=O)ccc1OC (configuration not stated) | 154 to 156
30 | CC1(C)CCCC2(C)C1CCC(C)(O)C2CCO (configuration not stated) | 130 to 132
31 | C#CCc1c(C)nc2c(OCc3ccccc3C)cccn12 | 138 to 140
32 | CS(=O)c1ccc(CCCCCCCCCCC(Cl)(Cl)C(=O)O)cc1 (configuration not stated) | 75 to 76
33 | O=C(O)Cc1ccc(OCc2ccccc2)c(OCc2ccccc2)c1 | 112 to 113
34 | Cc1csc(-c2cc3cccc(NS(=O)(=O)c4cccs4)c3[nH]2)n1 | 181 to 183
35 | CNC(=O)CCCC1CCN(Cc2cnc3cc(NC(=O)c4ccc(-c5ccc(F)cc5)cc4)c(C)cc3c2)CC1 | 223
36 | Cc1nnc2n1-c1sc(C#CCN3C(=O)c4ccccc4S3(=O)=O)cc1C(c1ccccc1Cl)=NC2 | 232 to 234
37 | Cc1cccc(CCCCCCCCC(=O)NO)c1 | 49 to 50
38 | O=C1NCN(c2ccccc2)C12CCN(C[C@@H]1CCc3ccccc3[C@H]1O)CC2 (relative stereo) | 204 to 205
39 | Fc1cccc(NC(=S)c2ccccn2)c1 | 72 to 76
40 | Cc1ccc(C(N)=S)nc1 | 172 to 173
41 | CN(C)Cc1ccnc(OCCCNc2c(N)c(=O)c2=O)c1 | 212 to 214
42 | CSc1cc2c(cc1C(F)(F)F)N(C(=O)Nc1ccc(CO)cc1)CC2 | 184 to 187
43 | c1nc2cc3c(cc2[nH]1)OCO3 | 155 to 156
44 | NCC1Cc2cc(-c3ccccc3)cc(-c3cc(Cl)ccc3Cl)c2O1 (configuration not stated) | 159 to 162
45 | Cn1cnc(S(=O)(=O)n2c(CCCC(=O)O)cc3cc(Cl)ccc32)c1 | 222 to 225
46 | O=C(NCCSc1ccncc1)c1ccccc1CO | 132 to 133
47 | Oc1ccc(Nc2cc(Cl)ncn2)cc1 | 241 to 244
48 | NC(=O)c1sc(Nc2ccccc2)c2c1CCc1cn[nH]c1-2 | 233 to 234
49 | N#Cc1c(-c2cccc(C(=O)NCCO)c2)cc(-c2ccccc2O)nc1NC(=O)c1cccs1 | 218 to 219
50 | O=C(O)c1cc(Br)ccc1COc1ccc(Br)cc1 | 214 to 215
51 | NC(=O)n1nc(-c2ccco2)cc1N | 145
52 | COc1ccc(-n2c(=O)oc(=O)c3ccccc32)cc1 | 215 to 216

Row | Compound | melting point [°C]
53 | CCCCOc1nc(N)c2[nH]c(=O)n(CCCCN(CCN3CCOCC3)Cc3cccc(CC(=O)OC)c3)c2n1 | 189 to 190
54 | CC(=O)ON=C(N)c1cccc(C(=O)NCCCNC(=O)[C@@H]2CCCN2S(=O)(=O)c2ccc(Cl)c(COc3cccc4c(C)cc(C)nc34)c2Cl)c1 | 100 to 104
55 | CCN(C)C(=O)NC(=N)SC | 74 to 76
56 | Cc1cc(-n2c(C)ccc2-c2ccc(S(C)(=O)=O)cc2)ccc1-c1ccoc1 | 69 to 75
57 | Nc1cc(N)c(Cl)cc1Cl | 138 to 141
58 | CN1C(=O)CC[C@]2(C)c3ccc(-c4c(F)c(F)c(F)c(F)c4F)cc3CC[C@@H]12 | 92 to 100
59 | O=C(Nc1ccc(Cl)cn1)c1cn2nc(N3CCN(C(=O)c4ccccc4C(F)(F)F)CC3)ccc2n1 | 265 to 268
60 | CC(C)c1nc(O)c([N+](=O)[O-])c(O)n1 | 300
61 | CN(CCN(C)c1nc2ccccc2n1Cc1ccc(F)cc1)C(=O)OC(C)(C)C | 182 to 185
62 | O=C(O)c1cc(=O)cc(-c2cccc3ccccc23)o1 | 248 to 249
63 | COc1ccc(C(=O)Nc2ccccc2)cc1NS(=O)(=O)c1cccc([N+](=O)[O-])c1 | 208 to 210
64 | COc1ccc2[nH]cc(CCc3nc4ccccc4c(=O)n3-c3ccccc3)c2c1 | 220 to 221
65 | N#Cc1ccccc1NC(=O)c1snnc1C1CC1 | 124
66 | CC(C)C[C@H](NC(=O)c1ccc2c(c1)Nc1ccccc1S2)C(=O)N[C@H]1CCOC1OC(=O)CC(C)(C)C (some centres not stated) | 111 to 113
67 | CCCC[C@H](NC(=O)[C@H](CC(C)C)NC(=O)c1ccc(F)c(F)c1F)C(=O)CSCc1ccco1 | 101 to 102
68 | Cc1nc(O)c2c(n1)CCN(c1nc(C)nc(O)c1[N+](=O)[O-])CC2 | > 200
69 | N#Cc1sc(-c2ccccc2)nc1N | 178 to 179
70 | CCOC(=O)CCCOc1ccc(C(=O)Nc2ccccc2Oc2ccccc2-c2nnn[nH]2)cc1 | 162 to 164
71 | Nc1ccc(Sc2nnc3ccc(-c4ccc(F)cc4)cn23)cc1 | 217
72 | Cc1nc(C(F)F)c(C(=O)Nc2ccccc2-c2ccc(Br)cc2)s1 | 151
73 | O=C1CCCCCCCCCCC(O)CCCO1 (configuration not stated) | 59 to 61
74 | CCOC(=O)CCc1cc(OCOC)nn1Cc1ccc(Cl)cc1Cl | 47 to 49
75 | CCCCCCOC(=O)C=Nc1cc(Cl)ccc1C(=O)O | 99
76 | CCOC(=O)Cc1ccc2c(c1)sc1cccc(Cl)c12 | 82 to 84
77 | CC1NN2C=CC=NC2C1C#N (configuration not stated) | 170 to 172
78 | O=C(O)c1cc2c(-c3cccs3)nccc2[nH]c1=O | 278

Row | Compound | melting point [°C]
79 | CSc1cnn(-c2c(Cl)cc(C(F)(F)F)cc2Cl)c1N | 106 to 108
80 | CC(=O)Nc1cc(Br)ccc1C(=O)O | 220
81 | COC(C(=Cc1ccc(Cl)cc1)n1cncn1)C(C)(C)C (configuration not stated) | 63 to 66
82 | CCCc1c(/C=C/c2ccccc2C)nc2ccc(C(=O)OC)cn2c1=O | 190 to 193
83 | COc1ccc(SC(=C2NCCCS2)[N+](=O)[O-])cc1 | 160 to 162
84 | CCCOC(=O)C(=O)Nc1ccccn1 | 56 to 59
85 | N#Cc1ccc(Br)cc1Br | 76 to 78
86 | CC(C)(C)C(Cl)=CC(=O)O | 146 to 148
87 | OCCCNc1cc(-c2ccnc(Nc3cccc(OC(F)(F)C(F)F)c3)n2)ccn1 | 141 to 145
88 | COC(=O)c1cc(OC)c(C)c2c1Oc1c(C=O)c(O)cc(C)c1C(=O)O2 | 264 to 265
89 | CC(=O)NC1C(Oc2ncn(Cc3ccc([N+](=O)[O-])cc3)c2C(N)=O)OC(COC(C)=O)C(OC(C)=O)C1OC(C)=O (configuration not stated) | 114 to 117
90 | Cc1ccc([N+](=O)[O-])cc1Nc1nccc(-c2cccnn2)n1 | 275 to 277
91 | CC(CCCc1ccc(F)cc1)c1cc(O)c2c3c(c(=O)oc2c1)CCC3 (configuration not stated) | 133 to 135
92 | CC(=O)Nc1ccc(O[C@H]2CCN(C)C[C@H]2c2ccccc2)cc1 (relative stereo) | 174 to 176
93 | CC(=O)Nc1cccc(-n2nc(C(C)C)c(=O)n(Cc3ccc(Cl)cc3)c2=O)c1 | 178
94 | N#CCCn1cc(C#N)c([N+](=O)[O-])n1 | 137 to 139
95 | CCCCc1nc2c(N)nc3cc(-c4ccc(OCCC)cc4)ccc3c2n1CC(C)C | 194 to 197
96 | CCOC(=O)C(N)=Cc1ccc(OCC(O)CNC(C)(C)C)cc1 (configuration not stated) | 99 to 100
97 | O=C(O)CCc1cccc(-c2nc(=O)c3ccc(C(F)(F)F)cc3s2)n1 | 193
98 | COc1ccc(-c2cc3cc(F)c(F)cc3[nH]2)cc1NCc1cccc(C#N)c1 | 154 to 155
99 | CCCCCCCCCCOc1ccc(CO)cc1OCCCCCCCCCC | 41 to 42.5
100 | CCCCCCCCCCCCC1=C(O)C(=O)c2c(Cl)cccc2C1=O | 102 to 104
101 | ClCCCOc1ccc(-c2nccs2)cc1 | 72 to 75
102 | OCC(CO)Oc1ccc(Cl)cc1 | 62 to 64
